Data: patent US4237273A, “Bis(nitrosoureido)-polyol derivatives” (Richter Gedeon Vegyeszeti Gyar RT, priority 1977, dated 1980)
Read-outs that look alike come from different tables or passages of the source.

Legend:
Yoshida s.c. sarcoma = assay: Antitumour activity, Yoshida s.c. sarcoma, tumour weight (Table 3); assay type: in vivo, CFY rats; details: from the 2nd day
Experimental: (§1) The leukemia and ascites type tumours were transplanted intraperitoneally, using an amount of 10^5 -10^7 cells, while in the case of solid tumours, small pieces of tumours were implanted subcutaneously with a trocar. Treatment:
(§2) Mice were treated with a volume of 0.1 ml./10 g. body-weight of a suspension of the tested compounds in water containing 2% of Tween-80, while rats were treated with a volume of 0.1 ml./100 g. bodyweight of a suspension of the tested compounds in water containing 5% of Tween-80.
(§3) In the case of solid tumours (Harding-Passey melanoma, S-180 and Yoshida sarcoma) the tumours were removed on the 8 to 14th day, and the inhibition was calculated by the weight of the tumours, using the following formula: [formula]

Rausher leukemia = assay: Antitumour activity, Rauscher leukemia, spleen weight (Table 3); assay type: in vivo, CFLP mice; details: from the 2nd day
Experimental: as §1, §2, §3
A similar method was applied in the case of the Rauscher leukemia too, but the weight of the spleen was taken, instead of the tumour, in the formula mentioned above.

[1] = Acute toxicity (LD50), 21 days observation; assay type: in vivo; details: mouse, in vivo, BDF1 mice of both sexes
Experimental: Species: BDF1 mice of both sexes
Treatment: a volume of 0.2 ml./10 g. body weight of a suspension of the tested compounds in water containing 2% of Tween-80 was used.
Number of animals: 10/dose
Observation time: 21 days

[2] = tested on: Ehrlich ascites carcinoma; assay: Duration of activity: total cell number in Ehrlich ascites carcinoma; assay type: in vivo, Mice; details: i.p. on the 6th day after transplantation, equitoxic doses
Experimental: (§4) Mice, being infected with Ehrlich ascites carcinoma, were treated intraperitoneally on the 6th day after transplantation with equitoxic doses of compounds 1, 2 and 6. The duration of the activity was investigated by determining the total cell number and the way of action by determining the mitosis index* and the thymidine index**. It could be shown that both compounds 1 and 2 inhibit the increase of the total cell number for 35 days, while a similar inhibition of the reference compound 6 lasts only for 17 days. As far as the quality of the activity is concerned, compounds 1 and 2 decrease the mitosis-index and the thymidine index in 24 hours by 90%, while in the case of compound 6 the decrease amounts only to 45 to 50%, and the maximum is reached on the 4th day.

[3] = tested on: Developed Yoshida s.c. sarcoma; assay: Recovery from developed Yoshida s.c. sarcoma, treated on 6th day (Table 4); assay type: in vivo, CFY rats; details: for Recovery (90 day survival): 30 mg./kg. 1× i.p. on 6th day, animals recovered/treated
Experimental: as §1, §2
(§5) Recovery=90 days of tumour free life after transplantation.

[4] = tested on: Ehrlich ascites carcinoma; assay: Way of activity: thymidine index (3H-thymidine incorporation into DNS) in Ehrlich ascites carcinoma; assay type: in vivo, Mice; details: i.p. on 6th day, equitoxic doses
Experimental: as §4
**thymidine index=^3 H-thymidine incorporation into the DNS of the tumour cell.

S-180 s.c. sarcoma = assay: Antitumour activity, S-180 s.c. sarcoma, tumour weight (Table 3); assay type: in vivo, CFLP mice; details: from the 2nd day
Experimental: as §1, §2, §3

Harding-Passey melanoma = assay: Antitumour activity, Harding-Passey melanoma, tumour weight (Table 3); assay type: in vivo, CFLP mice; details: from the 4th day after transplantation
Experimental: as §1, §2, §3

P-388 leukemia = assay: Antitumour activity, P-388 leukemia (Table 2); assay type: in vivo, BDF1 mice; details: from the 2nd day; for Recovery (90 day survival): animals recovered/treated
Experimental: as §1, §2
(§6) The ascites and leukemia-type tumours were evaluated with the exception of the Rausher leukemia by the increase of the life span and by complete recovery. [formula]
as §5

NK/Ly ascites lymphoma = assay: Antitumour activity, NK/Ly ascites lymphoma (Table 2); assay type: in vivo, CFLP mice; details: from the 2nd day; for Recovery (90 day survival): animals recovered/treated
Experimental: as §1, §2, §6, §5

L-120 leukemia = assay: Antitumour activity, L-1210 leukemia (Table 2); assay type: in vivo, BDF1 mice; details: for Increase in life span / Recovery (90 day survival): from the 2nd day; for Recovery (90 day survival): animals recovered/treated
Experimental: as §1, §2, §6, §5

Ehrlich acites carcinoma = assay: Antitumour activity, Ehrlich ascites carcinoma (Table 2); assay type: in vivo, CFLP mice; details: from the 2nd day; for Recovery (90 day survival): animals recovered/treated
Experimental: as §1, §2, §6, §5

[5] = tested on: Ehrlich ascites carcinoma; assay: Way of activity: mitosis index in Ehrlich ascites carcinoma; assay type: in vivo, Mice; details: i.p. on 6th day, equitoxic doses
Experimental: as §4
*mitosis index=number of dividing cells/1000 tumour cells

[6] = ip, i.p., read-out: LD50 value i.p.
[7] = po, p.o., read-out: LD50 value p.o.

SMILES | Inhibition (tumour weight) (Yoshida s.c. sarcoma; 3 mg./kg. 4× p.o.) [%] | Inhibition (tumour weight) (Yoshida s.c. sarcoma; 10 mg./kg. 4× i.p.) [%] | Inhibition (spleen weight) (Rausher leukemia; 10.0 mg./kg. 4× i.p.) [%] | Inhibition (spleen weight) (Rausher leukemia; 10.0 mg./kg. 4× p.o.) [%] | LD50 at 504 h [1, 6] [mg/kg] | LD50 at 504 h [1, 7] [mg/kg] | Duration of inhibition of the increase of the total cell number [2] [days] | Recovery (90 day survival) [3] | Inhibition (tumour weight) (S-180 s.c. sarcoma; 10.0 mg./kg. 5× i.p.) [%] | Inhibition (tumour weight) (Harding-Passey melanoma; 10.0 mg./kg. 9× p.o.) [%] | Recovery (90 day survival) (NK/Ly ascites lymphoma; 0.3 mg./kg. 4× i.p.) | Increase in life span (L-120 leukemia; 3.0 mg./kg. 4× i.p.) [%] | Recovery (90 day survival) (L-120 leukemia; 3.0 mg./kg. 4× i.p.) | Increase in life span (L-120 leukemia; 10.0 mg./kg. 4× i.p.) [%] | Recovery (90 day survival) (L-120 leukemia; 10.0 mg./kg. 4× i.p.) | Increase in life span (Ehrlich acites carcinoma; 1.0 mg./kg. 5× i.p.) [%] | Recovery (90 day survival) (Ehrlich acites carcinoma; 1.0 mg./kg. 5× i.p.) | Inhibition (spleen weight) (Rausher leukemia; 10.0 mg./kg. 6× i.p.) [%] | Inhibition (tumour weight) (Harding-Passey melanoma; 3.0 mg./kg. 9× i.p.) [%] | Increase in life span (P-388 leukemia; 3.0 mg./kg. 4× i.p.) [%] | further results
O=NN(CCCl)C(=O)NC[C@@H](O)[C@H](O)CN(N=O)C(=O)NCCCl (racemic) [Compound 4, 1-[3-(2-chloroethyl)-3-nitrosoureido]-4-[3-(2-chloroethyl)-1-nitrosoureido]-1,4-dideoxy-D,L-threitol] | 50 | 82 | 100 | 100 | 80 | 130 | – | – | – | – | – | – | – | – | – | – | – | – | – | – | –
O=NN(CCCl)C(=O)NC[C@@H](O)[C@H](O)CNC(=O)N(CCCl)N=O (racemic) [Compound 5, 1,4-bis[3-(2-chloroethyl)-3-nitrosoureido]-1,4-dideoxy-D,L-threitol] | 62 | – | – | 100 | 40 | 75 | – | – | – | – | – | – | – | – | – | – | – | – | – | – | Inhibition (tumour weight) (Yoshida s.c. sarcoma; 10 mg./kg. 2× p.o.): 99%; Inhibition (spleen weight) (Rausher leukemia; 3.0 mg./kg. 4× i.p.): 75%
O=NN(CCCl)C(=O)NC[C@@H](O)[C@@H](O)[C@H](O)[C@H](O)CNC(=O)N(CCCl)N=O [Compound 2, 1,6-bis[3-(3-chloroethyl)-N-nitrosoureido]-1,6-dideoxy-D-mannitol] | – | 84 | 86 | – | 110 | 250 | 35 | 4/7 | 56 | 59 | 6/7 | 158 | 3/10 | 140 | 8/10 | 96 | 4/7 | – | – | – | Inhibition (tumour weight) (Yoshida s.c. sarcoma; 30 mg./kg. 4× p.o.): 75%; Decrease of the thymidine index ([4]; in 24 hours): 90%; Inhibition (tumour weight) (S-180 s.c. sarcoma; 30.0 mg./kg. 5× p.o.): 51%; Inhibition (tumour weight) (Harding-Passey melanoma; 10.0 mg./kg. 9× i.p.): 42%; Increase in life span (P-388 leukemia; 10.0 mg./kg. 4× i.p.): 131%; Recovery (90 day survival) (P-388 leukemia; 10.0 mg./kg. 4× i.p.): 0/8; Increase in life span (L-120 leukemia; 1.0 mg./kg. 4× i.p.): 58%; Recovery (90 day survival) (L-120 leukemia; 1.0 mg./kg. 4× i.p.): 0/10; Decrease of the mitosis-index ([5]; in 24 hours): 90%
O=NN(CCCl)C(=O)N[C@H]1C[C@@H](NC(=O)N(CCCl)N=O)[C@H](O)[C@@H](O)[C@@H]1O [Compound 3, 1,3-bis[3-(2-chloroethyl)-N-nitriosoureido]-1,2,3-trideoxyscylloinositol] | – | 86 | – | – | 40 | 100 | – | – | – | 38 | – | – | – | – | – | 46 | 2/7 | 100 | 54 | 101 | Recovery (90 day survival) (P-388 leukemia; 3.0 mg./kg. 4× i.p.): 0/8; Recovery (90 day survival) (NK/Ly ascites lymphoma; 0.1 mg./kg. 4× (route not given)): 7/7; Increase in life span (NK/Ly ascites lymphoma; 10.0 mg./kg. 4× p.o.): 61%; Recovery (90 day survival) (NK/Ly ascites lymphoma; 10.0 mg./kg. 4× p.o.): 1/7; Increase in life span (L-120 leukemia; 10.0 mg./kg. 4× p.o.): 61%; Recovery (90 day survival) (L-120 leukemia; 10.0 mg./kg. 4× p.o.): 1/7; Increase in life span (L-120 leukemia; 15.0 mg./kg. 1× i.p.): 180%; Recovery (90 day survival) (L-120 leukemia; 15.0 mg./kg. 1× i.p.): 5/8
O=NN(CCCl)C(=O)NCCCl [Compound 6, 1,3-bis(2-chloroethyl)-1-nitrosourea, reference compound] | 45 | 95 | – | – | 36 | 40 | 17 | 0/7 | 65 | – | 0/7 | 40 | 0/8 | 405 | 6/7 | – | – | 97 | 64 | 51 | Cure of Yoshida subcutaneous sarcoma, in words ([3]; single dose on the 6th day): inactive; Inhibition (tumour weight) (Yoshida s.c. sarcoma; 10 mg./kg. 4× p.o.): 100%; Day on which the maximum decrease of the thymidine index is reached [4]: 4 days; Inhibition (tumour weight) (S-180 s.c. sarcoma; 10.0 mg./kg. 5× p.o.): 32%; Inhibition (tumour weight) (Harding-Passey melanoma; 3.0 mg./kg. 9× p.o.): 71%; Recovery (90 day survival) (P-388 leukemia; 3.0 mg./kg. 4× i.p.): 0/8; Recovery (90 day survival) (NK/Ly ascites lymphoma; 1.0 mg./kg. 4× i.p.): 5/7; Recovery (90 day survival) (NK/Ly ascites lymphoma; 3.0 mg./kg. 4× i.p.): 7/7; Increase in life span (L-120 leukemia; 10.0 mg./kg. 4× p.o.): 106%; Recovery (90 day survival) (L-120 leukemia; 10.0 mg./kg. 4× p.o.): 1/8; Increase in life span (L-120 leukemia; 24.0 mg./kg. 1× p.o.): 48%; Recovery (90 day survival) (L-120 leukemia; 24.0 mg./kg. 1× p.o.): 0/8; Activity on L-1210 leukemia on oral application, in words (L-120 leukemia; oral): only an unsignificant oral activity; Increase in life span (Ehrlich acites carcinoma; 3.0 mg./kg. 5× i.p.): 60%; Recovery (90 day survival) (Ehrlich acites carcinoma; 3.0 mg./kg. 5× i.p.): 1/6; Day on which the maximum decrease of the mitosis-index is reached [5]: 4 days
